Experimental data reported in patent US20090093669A1, “MAGNETOPHORESIS APPARATUS AND METHOD OF USE” (priority 2007, published 2009).
Read-outs that look alike come from different tables or passages of the source.

Key:
[1] = type: in vitro ADME, beef
From the text: Each individual magnet had: • a residual induction value of at least 1,500 mT (magnetization of 1,200,000 amp/meter); • diameter of about 12.7 mm; and a • thickness of about 6.35 mm.
The magnets were arranged in an alternating polarity sequence on an iron flux ring (the iron flux ring is shaped like a washer). This positioning increased the field in the direction away from the flux ring. This arrangement is similar to the standard QuadraBloc® sold by Gradient Technologies, LLC. The magnetic field at the center of a North Pole of the magnets was about 530 mT. The array was placed over the drug such that the face of the magnets (away from the flux ring and towards the skin) covered the drug solution applied to the test material or skin. This configuration is described in U.S. applications Ser. No. 11/469,346 which is incorporated by reference herein.
The TENS unit used in the following experiments was set for 20 volts with a pulse rate of 100 Hz and a pulse width of 200 microseconds. Other usable settings will influence the results as the strength of the field is directly proportional to all of the variables and increasing any of the variables will drive the drug faster. The settings are important for treating underlying pain; however, when drugs are being applied at the same time as the TENS is being utilized to treat pain, it generally is not desirable to use the highest settings. […]
The test system used to determine the rates of dispersion in tissue was commercial homogenized beef tissue with various levels of lipids (fat) to cells compressed into 3 mm sheets. […] The beef tissue was purchased with selected levels of fat present in the samples as measured by the producer. […] The drug or formulation to be tested was placed on top of the tissue stack and then after a specified time the stack was separated and the individual 3 mm layers (bologna sheet/slice) were analyzed for the drug content. The drug migration was analyzed by extracting the tissue at the various depths with solvents and then quantifying the drug in that sample. […]

[2] = TENS electric field applied (20 volts, 100 Hz, 200 microseconds), fat free/low fat beef tissue
[3] = magnetic field applied, fat free/low fat beef tissue
[4] = quadrapolar magnetic field applied (530 mT at surface), fat free/low fat beef tissue
[5] = control test, no applied field, fat free/low fat (lean) beef tissue, unit not given

Molecule	enhancement of diffusion coefficient, TENS versus control (cattle)	enhancement of diffusion coefficient, magnetic field versus control (cattle)	diffusion coefficient Dx [2]	enhancement of diffusion coefficient, magnetic field versus control [3]	diffusion coefficient Dx [4]	diffusion coefficient [5]	also measured
CCCCN1CCCCC1C(=O)Nc1c(C)cccc1C (stereo not drawn) [bupivacaine]	6-8 times	4-5 times					
COc1cc(CNC(=O)CCCC/C=C/C(C)C)ccc1O [capsaicin]	15 times		0.30 mm^2/min	4.5 times	0.09 mm^2/min		effect of TENS on the diffusion coefficient [1]: minimal effect; diffusion coefficient in lipid containing tissue versus lean tissue ([1]; cattle, 0.075 %): about 8 times; diffusion coefficient with magnets versus simple diffusion ([1]; cattle, 0.075 %): 3 times; depth of penetration (front) (TENS electric field, first 30 minutes, fat free tissue): 12 mm; time to totally penetrate the height of the stacks (TENS electric field, 15 mm stack, fat free tissue): 60 min; diffusion coefficient (cattle): 0.02; diffusion coefficient Dx (cattle, 0.075 %): 0.02 mm^2/min; depth of penetration (magnetic field, 30 minutes, fat free tissue): 7.5 mm; depth of penetration (magnetic field, end of 240 minutes, total tissue system, fat free tissue): 15 mm; rate of penetration, magnetic field versus control (magnetic field, fat free sample): doubled; depth of penetration (simple diffusion (control), 240 minutes, fat free tissue): 8 mm; depth of penetration (simple diffusion (control), after 30 minutes, fat free tissue): 4.5 mm
O=C(c1ccccc1)c1ccc2n1CCC2C(=O)O (stereo not drawn) [ketorolac]	6-8 times	4-5 times					
CCN(CC)CC(=O)Nc1c(C)cccc1C [lidocaine]			0.12 mm^2/min	about 1.5 times	0.04 mm^2/min	0.027	enhancement of diffusion coefficient, TENS versus control (TENS field applied, fat free/low fat beef tissue): 4.4 times; increase in diffusion coefficient, magnets versus control (magnets applied, low fat beef tissue): 48%
insulin glargine			0.008 mm^2/min	three and a half	0.007 mm^2/min	0.002	
